Values belong to the compound of their own block, whether it stands above or below them. Residues, ends and D or L forms follow the SMILES beside them.
Assays:
[1] = test system: post-operative adhesion formation; experiment: Modified cecal puncture abdominal surgery, histological assessment of post-operative adhesions (Example 1); format: in vivo, male Wistar rats; conditions: for complications due to intraperitoneal use: 0.3-1.5 g/kg intraperitoneally; for reducing and/or preventing post-operative adhesions (including secondary adhesions): administered intra-peritoneally; for acute inflammatory response (macrophages and macrophage chemotactic proteins): days 3-7, vs saline and non-treatment surgical groups
Experimental: 70 plus male Wistar rats (over 350 g each) were assessed histologically on post-operative days 1,3,5,7,10, 30, and at about 6 weeks. The rats were randomly distributed based on the mode of treatment, type of sutures and presence or absence of hemorrhage during surgery. Initially, there were three surgery groups (alanyl-glutamine treatment, saline, no treatment) plus a control (no surgery).
The rats were anaesthetized with halothane/Ketamine. Open surgery involving a midline sub-umbilical incision and a modified cecal puncture with pulstring to prevent soilage after abdominal closure was done. The procedure involved some fecal extrusion, mimicking clinical scenarios of iatrogenic/traumatic perforations of the bowel. Alanyl-glutamine [Degussa; Coubevoie, France] […] (1.5 g/kg) was instilled into the peritoneal cavity from a syringe. The cecum, abdomen, and the skin were closed in layers using the same suture. Various absorbable (3/0 Vicryl™, 3/0 Monocryl™, 3/0 PDS™, 2/0 Maxon™) and non-absorbable sutures (3/0 Prolene™, 3/0 Ethibond™, 4/0 & 5/0 Surgilene™, 3/0 Novafil™) were used. The wound was infiltrated with local anesthetic. The animals were given sufficient chow to eat (20 g/day≈2 mmole/kg/day). The gastrointestinal tract and omentum were harvested from the stomach to the sigmoid colon and fixed in formaldehyde solution for evaluation.
The severity of adhesions was assessed histologically using standard Haematoxylin & Eosin and Masson trichrome stained slides. The latter helped delineate the degree of fibrosis and collagen deposition.
Semi-quantitative analysis was done by scoring the average number of milky spots per high-power-field (HPF). Quantitative statistical analysis was done using the T-test between the experimental groups. Milky spots are a marker for inflammation and adhesion formation.

[2] = test system: post-operative adhesion formation; experiment: Surgery as in Example 1 with Marlex mesh inserted, Zuhlke adhesion score (Example 2); format: in vivo, rats; conditions: day 90
Experimental: Previous studies show a high incidence of adhesion formation when surgical mesh is employed as a reinforcing material [6a, 6b]. We repeated trials as described in Example 1, inserting Marlex™ mesh during the procedure on the surgical groups.
Severity of adhesions was assessed at day 90 using the adhesion score of Zuhlke, et al.. This scoring procedure has been described in the literature for assessment of other potential treatments for adhesions. […] This differs from previous measurements of adhesions using polypropylene mesh which reported up to about 90% adhesion formation [6a].

secondary adhesions = experiment: Secondary adhesions after adhesiolysis in rats with mesh implants, Zuhlke score (Example 3); format: in vivo, Sprague-Dawley rats; conditions: three weeks after adhesiolysis and installation, six months after initial surgery
Experimental: Adhesions tend to recur once in place. We examined the effect of alanyl-glutamine treatment on such secondary adhesions. The modified caecal perforation with pulstring closure procedure described in Example 1 was performed on 9 Sprague-Dawley rats. These were divided into 5 groups, each group receiving a different form of mesh (INTERCEED™; PROCEED™; BARD™ composite; prolene; and a mesh which was allowed to be “infected” by repeated re-opening of the wound). The surgical procedure with mesh implacement was performed without application of a glutamine source. Six months after initial surgery, a laparotomy was performed on each rat then adhesiolysis followed by installation of alanyl-glutamine.

[3] = test system: post-operative adhesion formation; experiment: Modified cecal puncture abdominal surgery, histological assessment of post-operative adhesions (Example 1); format: in vivo, male Wistar rats; conditions: 0.3 g/kg intraperitoneal

complications due to intraperitoneal use [1]: did not observe complications
SMILES: C[C@H](N)C(=O)N[C@@H](CCC(N)=O)C(=O)O [alanyl-glutamine] (H-Ala-Gln-OH)
effectiveness of dosage ([1]; 1.5 g/kg intraperitoneal): effective | histological appearance of the peritoneum (adhesion) ([1]; 10th post-operative day, intraperitoneal, vs untreated and saline treated surgical groups): very minimal adhesion | reducing and/or preventing post-operative adhesions (including secondary adhesions) ([1]; summary statement): effective | milky spots per 5 high power field (5HPF) in the peritoneum ([1]; controls 1 per 5HPF, untreated surgical group 6-7): the same as the controls | acute inflammatory response (macrophages and macrophage chemotactic proteins) [1]: markedly reduced | adhesions in all the suture groups (braided and monofilament, absorbable and non-absorbable) ([1]; intraperitoneal): prevented adhesions | effect in adhesion prevention compared with L-glutamine ([1]; summary statement): more pronounced | adhesion score of Zuhlke, et al. [2]: 0-1 | recurrence of adhesions (secondary adhesions), scored according to Zuhlke, et al. (secondary adhesions): no secondary adhesions were seen | effectiveness of dosage [3]: effective

complications due to intraperitoneal use [1]: did not observe complications
SMILES: NC(=O)CC[C@H](N)C(=O)O [L-glutamine]
reducing and/or preventing post-operative adhesions (including secondary adhesions) ([1]; summary statement): effective | acute inflammatory response (macrophages and macrophage chemotactic proteins) [1]: reduction, but to a lesser extent
